Data set [1] can be described thus: Pharmacokinetic evaluation in mice (IV and PO). The class given is in vivo. Conditions: mouse, plasma, female Balb/c mice. How it is done: Experimental procedure: A 0.1 mg/mL clear solution of the test compound in the corresponding solvent medium (see Table 22) was injected into female Balb/c mice (fasting overnight, 7-9 weeks old) via tail vein at a dose of 0.2 mg/kg. About 30 μL of blood was collected from jugular vein or tail vein at 0.0833, 0.25, 0.5, 1.0, 2.0, 4.0, 8.0 and 24 h after intravenous administration. 0.2 mg/mL of the test compound suspended in the corresponding solvent medium (see Table 22) was given to female Balb/c mice (fasting overnight, 7-9 weeks old) by gavage at a dose of 2 mg/kg. The experimental conditions were detailed in Table 22. At 0.0833, 0.25, 0.5, 1.0, 2.0, 4.0, 6.0, 8.0 and 24 h after oral administration, about 30 μL of blood was collected from the jugular vein or tail vein of the female Balb/c mice. The blood was placed in an anticoagulant tube in which EDTA-K2 had been added, and plasma was separated by centrifugation. The plasma concentration was determined by LC-MS/MS method, and the relative pharmacokinetic parameters were calculated using WinNonlin™ Version 6.3 (Pharsight, Mountain View, CA) pharmacokinetic software by non-compartment model linear logarithmic trapezoidal method. [table]

The target in another data set is RET (Homo sapiens, UniProt P07949). As to the kind of experiment: In vitro enzyme activity test, RET kinase. The class given is biochemical. Conditions: ATP 20 μM. How it is done:
(§1) The enzyme activity was experimentally detected by Z'-LYTE™ kinase test, and the inhibitory effect of the compound on RET and RET (V804M) kinase was evaluated with the IC50 value of the compound as an indicator. The concentration of the compound used for the RET and RET (V804M) kinase test was diluted by a factor of 3, giving 10 concentrations from 3 μM to 0.152 nM. The content of DMSO in the detection reaction was 1%. Basic reaction buffer, 20 mM hydroxyethyl piperazine-ethanesulfonic acid (Hepes) (pH 7.5) buffer, 10 mM MgCl2, 1 mM ethylene glycol bis(aminoethyl ether)tetraacetic acid (EGTA), 0.02% polyoxyethylene dodecyl ether (Brij35), 0.02 mg/mL bovine serum protein, 0.1 mM Na3VO4, 2 mM dithiothreitol (DTT) and 1% DMSO. The compound to be tested was dissolved in 100% DMSO system and diluted to 10 mM for use. Integra Viaflo Assist was used for solution dilution. Test conditions: The concentration of RET enzyme was […], the concentration of the peptide substrate CHKtide was 1000 μM, and the concentration of ATP was 20 μM; and the concentration of RET (V804M) enzyme was […], the concentration of substrate peptide was 1000 μM, and the concentration of ATP was 30 μM. […]. Phosphoric acid with a concentration of 0.5% was added to the kinase reaction solution to stop the reaction, and Envision instrument was used for plate reading. […]

For data set [2], the system named is Ba/F3-CCDC6-RET cell xenograft tumor model. As to the kind of experiment: Analysis of tumor growth inhibition (TGI). Format: in vivo, BALB/c nude female mice. Conditions: 10 mg/kg D0-D13 / 5 mg/kg D14-D17 / 2.5 mg/kg D18-D28, BID. How it is done:
Ba/F3-CCDC6-RET cell strain was cultured using 1640 medium (Biological Industries)+10% fetal bovine serum (BI)+1% double antibody (Penicillin Streptomycin solution, Coring, USA) at 37° C. with 5% CO2 and subcultured twice a week. When the cell saturation is 80-90%, cells were collected, counted, and inoculated subcutaneously into the right axillary of BALB/c nude female mice (6-8 weeks). After the inoculation was completed, the tumor growth status was observed day by day. When the average tumor volume reached about 165.77 mm^3, the mice were randomly divided into groups, with 6 mice per group, and administration was started.
The health status and death of the animals were detected daily. Routine examinations included tumor growth, activity, diet, weight, eyes, hair and other abnormal behaviors of the animals, and the tumor volume and weight were measured twice a week (Tuesday and Friday).
The inhibitory effect of the compound on tumor growth was evaluated by the relationship between tumor volume and time. The tumor volume was measured by vernier caliper, with the formula being TV=0.5 a×b^2, wherein, “a” was the long diameter of the tumor and “b” was the short diameter of the tumor. […]
it was calculated by the following formula: […]

In another data set the target is RET (V804M) (Homo sapiens, UniProt P07949, V804M). As to the kind of experiment: In vitro enzyme activity test, RET (V804M) kinase. Format: biochemical. The following applies: ATP 30 μM. How it is done:
as §1

Data set [3] is described as follows: Solid stability experiment, high temperature and high humidity (XRPD). The class given is physicochemical. An excerpt:
For samples placed under high temperature and high humidity, use aluminum foil to seal the bottle, and prick some holes on the aluminum foil to ensure that the sample can fully contact with the ambient air. The samples placed under different conditions were sampled for XRPD detection on Days 5 and 10, and the test results were compared with the initial test results on Day 0.

A short description of data set [4]: Hygroscopicity study by dynamic vapor sorption (DVS). Format: physicochemical. Conditions: 25° C. and 80% RH. How it is done: • Instrument model: SMS DVS Intrinsic dynamic vapor sorption instrument • Test conditions: A sample (10-15 mg) is taken and placed in a DVS sample tray for testing.
Detailed DVS Parameters are as Follows: • Temperature: 25° C. • Balance: dm/dt=0.01%/min (shortest: 10 min, longest: 180 min) • Drying: at 0% RH for 120 min • RH (%) test gradient: 10% • RH (%) test gradient range: 0%-90%-0%
Hygroscopicity Assessment is Classified as Follows:
SMS DVS Intrinsic Dynamic Vapor Sorption Instrument

Data set [5] is described as follows: Solid stability study, long-term conditions (XRPD). The class given is physicochemical. Conditions: for Crystal form (XRPD): 3 months. How it is done:
The flasks were placed under 40° C./75% RH conditions for 3 months or under 25° C./60% RH conditions for 3 months, then sampled for XRPD detection, and the detection results were compared with the initial test results of Day 0.

Chain of RET (P07949 29-1114): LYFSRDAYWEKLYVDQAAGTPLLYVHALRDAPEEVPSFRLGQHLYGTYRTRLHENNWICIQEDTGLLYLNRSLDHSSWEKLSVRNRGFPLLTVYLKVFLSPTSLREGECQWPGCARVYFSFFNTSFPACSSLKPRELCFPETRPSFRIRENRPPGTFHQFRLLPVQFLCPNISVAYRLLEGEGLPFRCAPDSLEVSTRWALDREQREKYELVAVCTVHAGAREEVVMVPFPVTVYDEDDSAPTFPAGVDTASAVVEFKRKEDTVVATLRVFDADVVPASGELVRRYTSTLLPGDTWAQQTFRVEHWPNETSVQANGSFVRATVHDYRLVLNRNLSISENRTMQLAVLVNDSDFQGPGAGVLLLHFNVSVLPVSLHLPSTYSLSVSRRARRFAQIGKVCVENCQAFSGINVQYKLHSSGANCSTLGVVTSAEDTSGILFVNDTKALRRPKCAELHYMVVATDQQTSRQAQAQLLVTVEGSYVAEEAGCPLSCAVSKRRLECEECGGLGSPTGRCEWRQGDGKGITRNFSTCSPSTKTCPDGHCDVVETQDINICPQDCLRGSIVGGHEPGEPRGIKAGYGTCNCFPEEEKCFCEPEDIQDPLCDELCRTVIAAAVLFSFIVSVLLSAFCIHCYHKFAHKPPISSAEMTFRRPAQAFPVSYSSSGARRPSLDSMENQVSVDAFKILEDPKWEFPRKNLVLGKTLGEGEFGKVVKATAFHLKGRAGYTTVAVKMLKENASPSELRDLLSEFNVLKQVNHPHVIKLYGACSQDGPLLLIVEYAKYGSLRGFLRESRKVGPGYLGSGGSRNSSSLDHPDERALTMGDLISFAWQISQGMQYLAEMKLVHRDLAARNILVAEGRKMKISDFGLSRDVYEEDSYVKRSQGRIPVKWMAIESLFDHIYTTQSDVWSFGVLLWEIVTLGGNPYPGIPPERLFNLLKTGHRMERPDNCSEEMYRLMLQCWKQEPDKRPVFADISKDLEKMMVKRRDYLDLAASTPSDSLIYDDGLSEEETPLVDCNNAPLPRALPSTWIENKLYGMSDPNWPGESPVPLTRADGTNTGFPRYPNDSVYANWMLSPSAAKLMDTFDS
Chain of RET (V804M) (P07949 29-1114 V804M): as the sequence (P07949 29-1114) above, with V776M counted along it

Turning to `COc1ccc(CN2C3CC2CN(c2cnc(-c4cc(C5=CCOCC5)cn5ncc(C#N)c45)cn2)C3)cn1` [listing 1 of 2 here], the AUC(0-t) (as a rule, exposure summed from dosing to a finite time, without extrapolation to infinity) amounted to 2.79 µM·h in data set [1] (IV 0.2 mg/kg) and 26.9 µM·h in data set [1] (PO 2 mg/kg). Further, the clearance in data set [1] (IV 0.2 mg/kg, read-out: Cl (plasma clearance)) turned out to be 2.3 mL/min/kg. Also, the half-life in data set [1] (IV 0.2 mg/kg, read-out: T1/2 (elimination half-life) (converted)) was 2.6 h. Also, the Vd in data set [1] (IV 0.2 mg/kg, read-out: Vdss (apparent steady-state distribution volume)) is 0.5 L/kg. The Cmax – broadly, the peak of the concentration-time curve – in data set [1] (PO 2 mg/kg) was 5.34 µM. Moreover, the Tmax – broadly, the time from dosing to the highest level – in data set [1] (PO 2 mg/kg) is 2 h. Further, the IC50 (as a rule, the concentration at which inhibition is half-maximal) on RET is 0.72 nM; on RET (V804M), 5.86 nM. In data set [2], the “TGI % (tumor volume on Day 23 after administration)” value came out at 98%.

Consider `COc1ccc(CN2C3CC2CN(c2cnc(-c4cc(C5=CCOCC5)cn5ncc(C#N)c45)cn2)C3)cn1` [listing 2 of 2 here], for which the “Crystal form (XRPD)” value is listed as “Crystal form A” in data set [3] (High humidity (room temperature/relative humidity 92.5%, open), Day 5); “Crystal form A” in data set [3] (High humidity (room temperature/relative humidity 92.5%, open), Day 10); “Crystal form A” in data set [3] (High temperature (60° C., open), Day 5); “Crystal form A” in data set [3] (High temperature (60° C., open), Day 10); “Crystal form A” in data set [5] (25° C./60% RH); “Crystal form A” in data set [5] (40° C./75% RH). Moreover, the “Solid stability (in words)” value in data set [3] (high temperature and high humidity) is reported as “good stability”; in data set [5] (long-term conditions) it was “good stability”. The Classification of hygroscopicity result in data set [4] was “slightly hygroscopic”. Also, the “ΔW (hygroscopic weight gain)” value in data set [4] turned out to be 0.8%. The “Crystal form change (in words)” value in data set [5] (all stability conditions (40° C./75% RH, 25° C./60% RH, 3 months)) is given as “no crystal form change”.

Values taken from US20230365596A1, “CRYSTAL FORMS OF PYRIDOPYRAZOLE COMPOUNDS AND PREPARATION METHOD THEREFOR” (GUANGZHOU BAIYUNSHAN PHARMACEUTICAL HOLDINGS CO., LTD. …, priority 2020, published 2023).
